According to US7820837B2, “Condensed ring compound” (Takeda Pharmaceutical Company Limited, priority 2003, dated 2010):

Target: T1, human GPR40 (Homo sapiens, UniProt O14842)
T1 construct: expressed in transfected cells
Experiment: Determination of EC50 on human GPR40 (intracellular calcium change by FLIPR in CHO cells stably expressing human GPR40)
Assay type: cell-based
Details: CHO cell line stably expressing human GPR40; changes in intracellular calcium concentration measured by FLIPR (Fluo3-AM); read-out: EC50 (Receptor Function Modulating Action on GPR40)
Protocol: Determination of EC50 of the Compound of Example on Human GPR40
For determination of EC50, CHO cell line that stably expressed human GPR40 was used. Unless otherwise indicated, the CHO cell line was cultured using α-MEM medium (Invitrogen) containing 10% fetal calf serum (Invitrogen).
The cells cultured to nearly confluent were rinsed with PBS (Invitrogen) on the previous day of the assay, peeled off with 0.05% Trypsin•EDTA solution (Invitrogen) and recovered by centrifugation. The number of the obtained cells was counted, and the cells were diluted such that 3×10^5 cells were contained per 1 mL of the medium, dispensed to a Black welled 96-well plate (coster) by 100 μL per well and cultured overnight in a CO2 incubator. Various test samples were added to the CHO cells thus prepared, and the changes in the intracellular calcium concentration were measured using FLIPR (Molecular Device). The below-mentioned pre-treatment was applied to measure changes in the intracellular calcium concentration by FLIPR.
An assay buffer for adding a fluorescence dye Fluo3-AM (DOJIN) to the cells, or for washing the cells immediately before FLIPR assay was prepared. To a solution of 1M HEPES (pH 7.4, DOJIN, 20 mL) added to HBSS (Invitrogen, 1000 mL) (hereinafter HBSS/HEPES solution) was added a solution (10 mL) obtained by dissolving probenecid (Sigma, 710 mg) in 1N NaOH (5 mL), and adding and mixing an HBSS/HEPES solution (5 mL), and the resulting solution was used as an assay buffer. Fluo3-AM (50 μg) was dissolved in dimethyl sulfoxide (Wako, 21 μL), and an equivalent amount of 20% pluronic acid (Molecular Probes) was added and mixed. The solution was added to the assay buffer (10.6 mL) supplemented with fetal calf serum (105 μL) to give a fluorescence dye solution. On the previous day of assay, the medium of the CHO cells newly inoculated to the Black welled 96-well plate was removed, the fluorescence dye solution was immediately dispensed by 100 μL per well and the cells were cultured in a CO2 incubator for 1 hr to allow intake of the fluorescence dye by the cells. The cells after the culture were washed with the above-mentioned assay buffer and set on FLIPR. The test sample was diluted with DMSO in advance, dispensed to polypropylene 96-well plate (sample plate) by 2 μL, and cryopreserved at −20° C. To the thawed sample plate was added an assay buffer containing 0.015% CHAPS (DOJIN) by 198 μL, and simultaneously set on FLIPR together with the cell plate. After the aforementioned pre-treatment, changes in the intracellular calcium concentration upon addition of various test samples were measured by FLIPR.

T1 sequence (O14842 whole entry): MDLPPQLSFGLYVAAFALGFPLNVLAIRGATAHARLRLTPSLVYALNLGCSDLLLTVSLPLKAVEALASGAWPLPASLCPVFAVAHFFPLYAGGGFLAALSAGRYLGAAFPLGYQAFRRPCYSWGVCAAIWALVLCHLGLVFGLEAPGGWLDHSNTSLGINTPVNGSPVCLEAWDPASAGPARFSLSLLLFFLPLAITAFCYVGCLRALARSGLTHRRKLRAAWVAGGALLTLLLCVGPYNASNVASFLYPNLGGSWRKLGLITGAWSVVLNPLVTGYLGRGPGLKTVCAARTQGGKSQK

Compound | EC50 [nM]
O=C(O)CC1COc2cc(OCc3ccc(Cn4c(-c5ccccc5)cc5ccccc54)cc3)ccc21 (stereo not drawn) [Example 66, [6-({4-[(2-phenyl-1H-indol-1-yl)methyl]benzyl}oxy)-2,3-dihydro-1-benzofuran-3-yl]acetic acid] | < 100
O=C(O)CC1CCCc2nc(SCc3cccc(Oc4ccccc4)c3)sc21 (stereo not drawn) [Example 78, {2-[(3-phenoxybenzyl)thio]-4,5,6,7-tetrahydro-1,3-benzothiazol-7-yl}acetic acid] | < 100
CCCN(Cc1ccc(COc2ccc3c(c2)OCCC(C(=O)O)C3)cc1)c1nc(-c2ccccc2)cs1 (stereo not drawn) [Example 21, 8-[(4-{[(4-phenyl-1,3-thiazol-2-yl)(propyl)amino]methyl}benzyl)oxy]-2,3,4,5-tetrahydro-1-benzoxepine-4-carboxylic acid] | < 1000
CCCN(Cc1ccc(COc2ccc3c(c2)CCCC3CC(=O)O)cc1)c1nc(-c2ccccc2)cs1 (stereo not drawn) [Example 19, {6-[(4-{[(4-phenyl-1,3-thiazol-2-yl)(propyl)amino]methyl}benzyl)oxy]-1,2,3,4-tetrahydronaphthalen-1-yl}acetic acid] | < 1000
Cc1cc(OCc2ccccc2)cc(C)c1-c1cccc(COc2ccc3c(c2)OCC3CC(=O)O)c1 (stereo not drawn) [Example 70, (6-{[4′-(benzyloxy)-2′,6′-dimethylbiphenyl-3-yl]methoxy}-2,3-dihydro-1-benzofuran-3-yl)acetic acid] | < 100
Cc1cccc(C)c1-c1cccc(COc2ccc3c(c2)CCCC3CC(=O)O)c1 (stereo not drawn) [Example 11, {6-[(2′,6′-dimethylbiphenyl-3-yl)methoxy]-1,2,3,4-tetrahydronaphthalen-1-yl}acetic acid] | < 100
CCCCOCCOc1ccc(-c2cccc(COc3ccc4c(c3)OCC4CC(=O)O)c2)c(C)c1 (stereo not drawn) [Example 58, (6-{[4′-(2-butoxyethoxy)-2′-methylbiphenyl-3-yl]methoxy}-2,3-dihydro-1-benzofuran-3-yl)acetic acid] | < 100
Cc1cccc(C)c1-c1cc(COc2ccc3c(c2)OCC3CC(=O)O)ccc1OCc1ccccc1 (stereo not drawn) [Example 75, (6-{[6-(benzyloxy)-2′,6′-dimethylbiphenyl-3-yl]methoxy}-2,3-dihydro-1-benzofuran-3-yl)acetic acid] | < 100
Cc1ccc2ccccc2c1-c1cccc(COc2ccc3c(c2)OCC3CC(=O)O)c1 (stereo not drawn) [Example 47, (6-{[3-(2-methyl-1-naphthyl)benzyl]oxy}-2,3-dihydro-1-benzofuran-3-yl)acetic acid] | < 100
O=C(O)CC1COc2cc(OCc3ccc(CN(CCc4ccccc4)c4nc(-c5ccccc5)cs4)cc3)ccc21 (stereo not drawn) [Example 73, calcium {6-[(4-{[(2-phenylethyl)(4-phenyl-1,3-thiazol-2-yl)amino]methyl}benzyl)oxy]-2,3-dihydro-1-benzofuran-3-yl}acetate] | < 1000
Cc1cccc(C)c1-c1cccc(COc2ccc3c(c2)OCCC(C(=O)O)C3)c1 (stereo not drawn) [Example 13, 8-[(2′,6′-dimethylbiphenyl-3-yl)methoxy]-2,3,4,5-tetrahydro-1-benzoxepine-4-carboxylic acid] | < 100
Cc1cccc(C)c1-c1cccc(COc2ccc3c(c2)CCCCC3CC(=O)O)c1 (stereo not drawn) [Example 25, {2-[(2′,6′-dimethylbiphenyl-3-yl)methoxy]-6,7,8,9-tetrahydro-5H-benzo[7]annulen-5-yl}acetic acid] | < 1000
O=C(O)CC1CCc2cc(OCc3cccc(Oc4ccccc4)c3)ccc21 (stereo not drawn) [Example 15, {5-[(3-phenoxybenzyl)oxy]-2,3-dihydro-1H-inden-1-yl}acetic acid] | < 100
CCCN(Cc1ccc(COc2ccc3c(c2)OCC3CC(=O)O)cc1)c1nc(-c2ccccc2)cs1 (stereo not drawn) [Example 35, {6-[(4-{[(4-phenyl-1,3-thiazol-2-yl)(propyl)amino]methyl}benzyl)oxy]-2,3-dihydro-1-benzofuran-3-yl}acetic acid] | < 100
Cc1cccc(C)c1-c1cccc(COc2ccc3c(c2)OCC3CC(=O)O)c1 (stereo not drawn) [Example 33, {6-[(2′,6′-dimethylbiphenyl-3-yl)methoxy]-2,3-dihydro-1-benzofuran-3-yl}acetic acid] | < 100
C/C(=C\COc1ccc2c(c1)OCC2CC(=O)O)c1ccc2c(c1)CCCC2 (stereo not drawn) [Example 125, (6-{[(2E)-3-(5,6,7,8-tetrahydro-2-naphthalenyl)-2-buten-1-yl]oxy}-2,3-dihydro-1-benzofuran-3-yl)acetic acid] | < 1000
O=C(O)CC1CCCc2cc(OCc3cccc(Oc4ccccc4)c3)ccc21 (stereo not drawn) [Example 6, (6-((3-phenoxybenzyl)oxy)-1,2,3,4-tetrahydro-1-naphthalenyl)acetic acid] | < 100
Cc1cccc(C)c1-c1cccc(COc2ccc3c(c2)CCC3CC(=O)O)c1 (stereo not drawn) [Example 17, {5-[(2′,6′-dimethylbiphenyl-3-yl)methoxy]-2,3-dihydro-1H-inden-1-yl}acetic acid] | < 100
